Test results reported in US20220370416A1, “COMPOUNDS AND METHODS FOR TARGETED DEGRADATION OF KRAS” (Arvinas Operations, Inc., priority 2020, published 2022).

Target: HiBit-KRAS^G12C (Homo sapiens, UniProt P01116, G12C)
Experiment: HiBit degradation assay in SW1573 HiBit-KRas^G12C cells
Format: cell-based
Design: expressed in transfected cells; host or cells: SW1573 (clone E6), modified pcDNA3.1 vector, TK promoter
Conditions: 0.1% DMSO, 24 hours; for DC50: SW1573 HiBit-KRas^G12C, read-out: KRas^G12C-HIBit (SW1573; 0.1% DMSO) DC50*; for Dmax: SW1573, SW1573 HiBit-KRas^G12C, read-out: KRas^G12C-HiBit (SW1573; 0.1% DMSO) Dmax**
Protocol: Reagents. SW1573 (CRL-2170) and MiaPaCa-2 (CRL-1420) cells were purchased from ATCC. Both cell lines are […] for the G12C mutation in KRAS. SW1573 cells were cultured in DMEM+F12+Glutamax (+Sodium Bicarbonate, +sodium pyruvate, Thermofisher scientific, #10565) supplemented with 10% FBS (Thermofisher scientific, #2060357) and 1% Antibiotic-Antimycotic (Thermofisher scientific, #15240096). MiaPaCa-2 cells were cultured in DMEM+Glutamax media (Thermofisher scientific, #10566) supplemented with 10% FBS (Thermofisher scientific, #2060357) and 1% Antibiotic-Antimycotic (Thermofisher scientific, #15240096). For degradation assays, 384 well plates were purchased from Corning (Corning® CellBIND® 384-well Flat Clear Bottom Black Polystyrene Microplates, Low Flange, #3770). Gambogic acid was purchased from Selleckchem (#S2448). Alamar blue was purchased from Thermofisher scientific (A50101) and used according to manufacturer instructions. The Nano-Glo® HiBit Lytic Detection System and Nano-Glo® HiBit Blotting System were purchased from Promega (#N3050 and #N2410) and used according to manufacturer instructions.
To create the SW1573 HiBit-KRAS^G12C cell line, the nucleotide sequence encoding the 11 amino acid HiBit tag from Promega (Schwinn, M. K. et al. (2018) CRISPR-mediated tagging of endogenous proteins with a luminescent peptide. ACS Chem. Biol. 13(2), 467-474) was appended to the N-terminus of the KRAS^G12C coding sequence. This synthesized DNA was cloned into a modified pcDNA3.1 vector under the control of the thymidine kinase (TK) promoter. This HiBit-KRAS^G12C expressing plasmid was transfected into parental SW1573 cells and colonies were selected using 400 μg/mL zeocin. The resulting clonal lines were screened for expression of HiBit-KRAS^G12C protein using Nano-Glo® HiBit Blotting System. A luminescent band of the correct size for HiBit-KRAS^G12C was detected in several clones. Clone E6 was selected for further studies.
Either SW1573 HiBit-KRas^G12C or MiaPaCa-2 HiBit-KRas^G12C cells were plated at 9000 cells/well in a 384 well plate (Corning #3770). Exemplary heterobifunctional molecules and positive controls were diluted in the appropriate cell media and applied to the plated cells resulting in a final concentration titration of 10 μM to 20 nM in either 0.1% or 0.5% dimethyl sulfoxide (DMSO). Gambogic acid was used as a positive control for cytotoxicity and titrated from 10 μM to 78 nM. All assays were performed in triplicate. Cells were treated with compounds for 24 hours at 37° C. in an incubator containing 5% CO2. Following treatment, alamar blue was used to determine if any compounds led to a loss in cell viability after 24 hours. The 10× alamar blue reagent was added to a final concentration of 1× as recommended by the manufacturer and cells were returned to the incubator for 4 hours. Plates were then allowed to equilibrate to room temperature and fluorescence was measured using a Perkin-Elmer EnVision. After completion of the fluorescence read, the liquid from each well was removed and the cells were washed with PBS. The Nano-Glo® HiBiT detection reagent was prepared according to the manufacturer's instructions and added to each well after the PBS wash was removed. Following incubation at room temperature for 45 minutes, the luminescence was read using the ultra-sensitive luminescence aperture on the Envision instrument.
Fluorescence values from the alamar blue treatment were normalized to the DMSO only control for each compound titration. We hypothesized that compounds that led to a ≥50% loss in cell viability of the KRAS-independent SW1573 HiBit-KRas^G12C cells were likely generally cytotoxic and loss of HiBit-KRAS^G12C signal from these compounds may be due to lower cell number and not specific KRAS^G12C degradation. These points were therefore excluded from the data analysis for degradation. […]

Chain of HiBit-KRAS^G12C (P01116 1-186 isoform P01116-2 G12C limits assumed): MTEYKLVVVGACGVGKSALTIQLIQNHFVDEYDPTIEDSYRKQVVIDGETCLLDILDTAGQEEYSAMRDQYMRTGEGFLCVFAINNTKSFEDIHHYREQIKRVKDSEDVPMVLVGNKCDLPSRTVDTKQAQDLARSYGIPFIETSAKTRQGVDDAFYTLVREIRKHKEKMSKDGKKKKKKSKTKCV

With `C=CC(=O)N1CCN(c2nc(O[C@H](C)CN3CCC(OCCOCC(=O)N[C@H](C(=O)N4C[C@H](O)C[C@H]4C(=O)N[C@@H](C)c4ccc(-c5scnc5C)cc4)C(C)(C)C)CC3)nc3c2CCN(c2cccc4ccccc24)C3)C[C@@H]1CC#N` [Compound 58, (2S,4R)-1-[(2S)-2-{2-[2-({1-[(2R)-2-({4-[(3S)-3-(cyanomethyl)-4-(prop-2-enoyl)piperazin-1-yl]-7-(naphthalen-1-yl)-5H,6H,7H,8H-pyrido[3,4-d]pyrimidin-2-yl}oxy)propyl]piperidin-4-yl}oxy)ethoxy]acetamido}-3,3-dimethylbutanoyl]-4-hydroxy-N-[(1S)-1-[4-(4-methyl-1,3-thiazol-5-yl)phenyl]ethyl]pyrrolidine-2-carboxamide] the DC50 was greater than 1000 nM.

`C=CC(=O)N1CCN(c2nc(O[C@H](C)CN3CCC(OCCOCCOc4cc(-c5scnc5C)ccc4CNC(=O)[C@@H]4C[C@@H](O)CN4C(=O)[C@@H](c4cc(C)no4)C(C)C)CC3)nc3c(F)c(-c4cc(O)cc5ccccc45)c(Cl)cc23)CC1` [Compound 72, (2S,4R)-N-[(2-{2-[2-({1-[(2R)-2-{[6-chloro-8-fluoro-7-(3-hydroxynaphthalen-1-yl)-4-[4-(prop-2-enoyl)piperazin-1-yl]quinazolin-2-yl]oxy}propyl]piperidin-4-yl}oxy)ethoxy]ethoxy}-4-(4-methyl-1,3-thiazol-5-yl)phenyl)methyl]-4-hydroxy-1-[(2R)-3-methyl-2-(3-methyl-1,2-oxazol-5-yl)butanoyl]pyrrolidine-2-carboxamide] showed a DC50 greater than 1000 nM.

Work on `C=C(F)C(=O)N1CCN(c2nc(O[C@H](C)CN3CCC(COCC(=O)N[C@H](C(=O)N4C[C@H](O)C[C@H]4C(=O)N[C@@H](C)c4ccc(-c5scnc5C)cc4)C(C)(C)C)CC3)nc3c(F)c(-c4cc(O)cc5ccccc45)c(Cl)cc23)CC1` [Compound 27, (2S,4R)-1-[(2S)-2-[2-({1-[(2R)-2-({6-chloro-8-fluoro-4-[4-(2-fluoroprop-2-enoyl)piperazin-1-yl]-7-(3-hydroxynaphthalen-1-yl)quinazolin-2-yl}oxy)propyl]piperidin-4-yl}methoxy)acetamido]-3,3-dimethylbutanoyl]-4-hydroxy-N-[(1S)-1-[4-(4-methyl-1,3-thiazol-5-yl)phenyl]ethyl]pyrrolidine-2-carboxamide] yielded a Dmax of less than 35% and a DC50 greater than 1000 nM.

`C=CC(=O)N1CCN(c2nc(O[C@H](C)CN3CCN(CCCC4CCN(CC(=O)N[C@H](C(=O)N5C[C@H](O)C[C@H]5C(=O)N[C@@H](C)c5ccc(-c6scnc6C)cc5)C(C)(C)C)CC4)CC3)nc3c(F)c(-c4cc(O)cc5ccccc45)c(Cl)cc23)CC1` [Compound 52, (2S,4R)-1-[(2S)-2-{2-[4-(3-{4-[(2R)-2-{[6-chloro-8-fluoro-7-(3-hydroxynaphthalen-1-yl)-4-[4-(prop-2-enoyl)piperazin-1-yl]quinazolin-2-yl]oxy}propyl]piperazin-1-yl}propyl)piperidin-1-yl]acetamido}-3,3-dimethylbutanoyl]-4-hydroxy-N-[(1S)-1-[4-(4-methyl-1,3-thiazol-5-yl)phenyl]ethyl]pyrrolidine-2-carboxamide] showed a DC50 greater than 1000 nM.

Work on `C=CC(=O)N1CCN(c2nc(O[C@H](C)CN3CCC(OCCOCCOCCOCCOCCOCCOCC(=O)N[C@H](C(=O)N4C[C@H](O)C[C@H]4C(=O)N[C@@H](C)c4ccc(-c5scnc5C)cc4)C(C)(C)C)CC3)nc3c(F)c(-c4cc(O)cc5ccccc45)c(Cl)cc23)CC1` [Compound 88, (2S,4R)-1-[(2S)-2-[20-({1-[(2R)-2-{[6-chloro-8-fluoro-7-(3-hydroxynaphthalen-1-yl)-4-[4-(prop-2-enoyl)piperazin-1-yl]quinazolin-2-yl]oxy}propyl]piperidin-4-yl}oxy)-3,6,9,12,15,18-hexaoxaicosanamido]-3,3-dimethylbutanoyl]-4-hydroxy-N-[(1S)-1-[4-(4-methyl-1,3-thiazol-5-yl)phenyl]ethyl]pyrrolidine-2-carboxamide] yielded a DC50 greater than 1000 nM.

`C=C(F)C(=O)N1CCN(c2nc(O[C@H](C)CN3CCC(COc4cc([C@@H](C(=O)N5C[C@H](O)C[C@H]5C(=O)N[C@@H](C)c5ccc(-c6scnc6C)cc5)C(C)C)on4)CC3)nc3c(F)c(-c4cc(O)cc5ccccc45)c(Cl)cc23)CC1` [Compound 18, (2S,4R)-1-[(2S)-2-[3-({1-[(2R)-2-({6-chloro-8-fluoro-4-[4-(2-fluoroprop-2-enoyl)piperazin-1-yl]-7-(3-hydroxynaphthalen-1-yl)quinazolin-2-yl}oxy)propyl]piperidin-4-yl}methoxy)-1,2-oxazol-5-yl]-3-methylbutanoyl]-4-hydroxy-N-[(1S)-1-[4-(4-methyl-1,3-thiazol-5-yl)phenyl]ethyl]pyrrolidine-2-carboxamide] showed a DC50 greater than 1000 nM.

`C=CC(=O)N1CCN(c2nc(OC[C@@H]3C[C@@H](OCCOCCOCCOCCOCCOCCOCCOCCOCC(=O)N[C@H](C(=O)N4C[C@H](O)C[C@H]4C(=O)N[C@@H](C)c4ccc(-c5scnc5C)cc4)C(C)(C)C)CN3C)nc3c2CCN(c2cccc4ccccc24)C3)C[C@@H]1CC#N` [Compound 74, (2S,4R)-1-[(2S)-2-(26-{[(3R,5S)-5-[({4-[(3S)-3-(cyanomethyl)-4-(prop-2-enoyl)piperazin-1-yl]-7-(naphthalen-1-yl)-5H,6H,7H,8H-pyrido[3,4-d]pyrimidin-2-yl}oxy)methyl]-1-methylpyrrolidin-3-yl]oxy}-3,6,9,12,15,18,21,24-octaoxahexacosanamido)-3,3-dimethylbutanoyl]-4-hydroxy-N-[(1S)-1-[4-(4-methyl-1,3-thiazol-5-yl)phenyl]ethyl]pyrrolidine-2-carboxamide] was tested, and the DC50 was greater than 1000 nM.

With `C=CC(=O)N1CCN(c2nc(OCCN3CCC(OCCOCC(=O)N[C@H](C(=O)N4C[C@H](O)C[C@H]4C(=O)N[C@@H](C)c4ccc(-c5scnc5C)cc4)C(C)(C)C)CC3)nc3c2CCN(c2cccc4cccc(C)c24)C3)C[C@@H]1CC#N` [Compound 30, (2S,4R)-1-[(2S)-2-{2-[2-({1-[2-({4-[(3S)-3-(cyanomethyl)-4-(prop-2-enoyl)piperazin-1-yl]-7-(8-methylnaphthalen-1-yl)-5H,6H,7H,8H-pyrido[3,4-d]pyrimidin-2-yl}oxy)ethyl]piperidin-4-yl}oxy)ethoxy]acetamido}-3,3-dimethylbutanoyl]-4-hydroxy-N-[(1S)-1-[4-(4-methyl-1,3-thiazol-5-yl)phenyl]ethyl]pyrrolidine-2-carboxamide] the Dmax was less than 35% and the DC50 was greater than 1000 nM.

Molecule `C=CC(=O)N1CCN(c2nc(O[C@H](C)CN3CCC(CN4CC5(CN(CC(=O)N[C@H](C(=O)N6C[C@H](O)C[C@H]6C(=O)N[C@@H](C)c6ccc(-c7scnc7C)cc6)C(C)(C)C)C5)C4)CC3)nc3c(F)c(-c4cc(O)cc5ccccc45)c(Cl)cc23)CC1` [Compound 35, (2S,4R)-1-[(2S)-2-{2-[6-({1-[(2R)-2-{[6-chloro-8-fluoro-7-(3-hydroxynaphthalen-1-yl)-4-[4-(prop-2-enoyl)piperazin-1-yl]quinazolin-2-yl]oxy}propyl]piperidin-4-yl}methyl)-2,6-diazaspiro[3.3]heptan-2-yl]acetamido}-3,3-dimethylbutanoyl]-4-hydroxy-N-[(1S)-1-[4-(4-methyl-1,3-thiazol-5-yl)phenyl]ethyl]pyrrolidine-2-carboxamide] has a DC50 greater than 1000 nM.
